Square brackets hold non-standard residues; d marks the D form. βAla = NCCC(=O)O
Key:
[1] = biological target: αVβ3 receptor (placenta, full length recombinant, soluble recombinant); assay: Competition assay: inhibition of biotinylated vitronectin binding to immobilized integrin; parameters: species or system human; conditions: biotinylated vitronectin 1 μg/ml, 3 h, 37° C.
Experimental: The truncated and full length recombinant αVβ3 and placenta αVβ3 are immobilized and binding of biotinylated ligands is examined. Three purified RGD-containing ligands—vitronectin, fibrinogen and fibronectin—that are known to bind to αVβ3 are used. […] Biotinylated vitronectin and increasing concentrations of above-specified peptides or non-peptidic analogues are incubated in parallel with immobilized receptor.
Integrins were immobilized as described above. Serially diluted cyclic peptides were added in parallel with biotinylated vitronectin (1 μg/ml). After 3 h incubation at 37° C., bound ligand was detected as described above. […]

[2] = test system: αV and β3 virus infected Sf9 cells; assay: Cell shape change studies of virus-infected Sf9 cells on vitronectin coated plates; format: cell-based, insect; conditions: result in words
Description: Integrins determine and modulate the cell shape by acting as structural links between the extracellular matrix and the cytoskeleton (Schwartz et al. 1995, Ann. Rev. Cell Dev. Biol. 11, 549; Montgomery et al. 1994, Proc. Natl. Acad. Sci. USA 91, 8856). In later phases of baculovirus infection, Sf9/High Five cells are usually rounded and loosely attached (FIG. 3A), as were the cells infected with either of the αV or β3 expressing recombinant baculovirus alone or with the null recombinant virus (FIG. 3A). […] No shape change is observed in cells co-infected with αV(FL)+β3(SL) or αV(SL)+β3(SL). […] Correspondingly, cell shape change of αV and β3 virus infected Sf9 cells on vitronectin coated plates are inhibited when challenged with RGD peptides (Table 1).
Sf9 cells (1×10^6 cells/well) were allowed to adhere to six-well plates either virgin or coated with purified human plasma vitronectin (5 μg/ml in PBS; 2 hours) followed by blocking of non-specific sites (3% BSA (w/v) in PBS), then infected with various virus combinations. The cells were observed 48 hours post-infection for cell shape change.

[3] = test system: αVβ3 receptor (placenta, full length recombinant, soluble recombinant); assay: Ligand binding assay: biotinylated ligands on immobilized integrins; parameters: species or system human; conditions: full length and soluble recombinant αVβ3, compared with placental αVβ3; result in words
Experimental: The truncated and full length recombinant αVβ3 and placenta αVβ3 are immobilized and binding of biotinylated ligands is examined. Three purified RGD-containing ligands—vitronectin, fibrinogen and fibronectin—that are known to bind to αVβ3 are used. […] Vitronectin is used for testing specific interaction with the recombinant αVβ3. Biotinylated vitronectin and increasing concentrations of above-specified peptides or non-peptidic analogues are incubated in parallel with immobilized receptor.
Proteins in PBS were diluted with 5-fold concentrated ligation buffer [500 mM NaCl, 500 mM NaHCO3] to 1 mg/ml protein. Freshly prepared N-hydroxysuccinimidobiotin (Sigma) [1 mg/ml in DMSO] was added to 0.1 mg/ml and incubated for 2 h at 20° C. After dialysis [PBS, 0.025% NaN3], protein concentration was determined. The biotinylated proteins were stored at 4° C.
Ligand Binding assay Integrins were diluted to 1 μg/ml in coating buffer [150 mM NaCl, 1 mM CaCl2, 1 mM MgCl2, 10 μM MnCl2, 20 mM Tris-HCl; pH 7.4) and 100 μl were adsorbed overnight at 4° C. to 96-well microtitre plates. The plates were washed once with binding buffer [0.1% (w/v) BSA in coating buffer] and blocked with blocking buffer (coating buffer containing 3% (w/v) BSA) 2 h at 37° C. After rinsing with binding buffer, serially diluted biotinylated ligands were added. After incubation (3 h, 37° C.), unbound ligand was washed from the plate with binding buffer, and bound biotin was detected by incubation with antibiotin-alkaline-phosphatase conjugated antibody and detection of bound antibody with p-Nitrophenyl-phosphate (BIO-RAD) substrate.
Target sequence in this assay (P06756 31-987 limits assumed): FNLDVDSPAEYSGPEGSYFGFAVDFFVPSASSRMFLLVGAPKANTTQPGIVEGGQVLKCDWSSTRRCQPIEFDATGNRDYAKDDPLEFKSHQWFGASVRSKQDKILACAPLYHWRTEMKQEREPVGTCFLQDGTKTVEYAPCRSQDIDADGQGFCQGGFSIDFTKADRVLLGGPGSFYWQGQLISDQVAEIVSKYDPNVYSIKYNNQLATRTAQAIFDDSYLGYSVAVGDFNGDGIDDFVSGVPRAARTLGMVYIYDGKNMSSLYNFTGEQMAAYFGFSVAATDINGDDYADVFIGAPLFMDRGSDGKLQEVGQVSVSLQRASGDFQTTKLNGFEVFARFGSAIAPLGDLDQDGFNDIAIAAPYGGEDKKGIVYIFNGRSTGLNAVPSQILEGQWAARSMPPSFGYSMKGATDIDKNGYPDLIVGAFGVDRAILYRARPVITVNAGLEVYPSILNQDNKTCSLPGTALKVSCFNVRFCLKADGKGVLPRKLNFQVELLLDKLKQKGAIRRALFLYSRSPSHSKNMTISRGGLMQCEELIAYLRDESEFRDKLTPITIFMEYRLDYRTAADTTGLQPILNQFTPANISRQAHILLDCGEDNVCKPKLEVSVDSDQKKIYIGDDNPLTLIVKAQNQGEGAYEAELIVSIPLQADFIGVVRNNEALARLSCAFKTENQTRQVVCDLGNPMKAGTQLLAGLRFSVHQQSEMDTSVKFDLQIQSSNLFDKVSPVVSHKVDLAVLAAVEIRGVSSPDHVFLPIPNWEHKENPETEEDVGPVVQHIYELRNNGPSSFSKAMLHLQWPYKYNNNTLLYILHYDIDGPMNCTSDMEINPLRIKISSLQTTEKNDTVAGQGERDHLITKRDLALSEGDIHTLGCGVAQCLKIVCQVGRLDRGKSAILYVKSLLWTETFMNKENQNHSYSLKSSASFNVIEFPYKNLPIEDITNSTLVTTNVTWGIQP
Target sequence in this assay (P05106 27-718 limits assumed, further chain): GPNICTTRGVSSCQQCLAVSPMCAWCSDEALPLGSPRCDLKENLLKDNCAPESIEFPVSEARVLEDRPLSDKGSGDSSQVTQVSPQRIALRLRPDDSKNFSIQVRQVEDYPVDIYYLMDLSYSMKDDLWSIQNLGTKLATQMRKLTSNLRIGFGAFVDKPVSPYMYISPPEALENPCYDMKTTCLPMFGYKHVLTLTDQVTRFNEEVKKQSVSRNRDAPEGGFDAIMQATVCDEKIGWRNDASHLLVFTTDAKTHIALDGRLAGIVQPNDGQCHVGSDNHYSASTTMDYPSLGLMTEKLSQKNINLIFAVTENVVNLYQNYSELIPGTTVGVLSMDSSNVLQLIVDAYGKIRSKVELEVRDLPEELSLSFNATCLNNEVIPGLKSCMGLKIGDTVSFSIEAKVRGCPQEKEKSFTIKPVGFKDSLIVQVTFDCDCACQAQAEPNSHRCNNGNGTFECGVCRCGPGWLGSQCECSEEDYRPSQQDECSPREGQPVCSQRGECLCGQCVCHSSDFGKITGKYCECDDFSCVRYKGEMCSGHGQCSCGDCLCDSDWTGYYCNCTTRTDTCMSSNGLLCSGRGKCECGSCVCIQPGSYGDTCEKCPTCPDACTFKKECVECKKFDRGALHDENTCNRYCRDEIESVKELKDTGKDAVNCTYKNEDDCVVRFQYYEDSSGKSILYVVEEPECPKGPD

[4] = test system: Sf9 cells expressing full length or truncated αV or β3; assay: Metabolic pulse labelling of proteins expressed in Sf9 cells; format: cell-based, insect; conditions: tunicamycin 10 μM or 10 μg/ml for 16 hours before and during pulse labelling; SDS-PAGE
Experimental: The cell extracts were resolved by SDS-PAGE under reducing conditions. The molecular mass in kDa of standard protein markers are indicated on the right. • (B) Sf9 cells infected with αV (FL) (lanes 1 and 2), αV(SL) (lane 3 and 4), β3 (FL) (lane 5 and 6) and β3(SL) (lane 7 and 8) were either treated with 10 μM Tunicamycin in DMSO (lanes 1, 3, 5 and 7) or with DMSO alone (lanes 2, 4, 6 and 8). The infected cells were metabolically pulse labelled as above. Standard protein markers are indicated on the right.
Similarly, Sf9 cells expressing full length β3 how two bands of approximately 90 kDa and 125 kDa (FIG. 2A, lane 4).
Metabolic labelling of Sf9 cells was performed as described (Summer and Smith 1987: A manual of methods for baculovirus vectors and insect cell procedures. Texas Agricultural Experiment Station Bulletin B-1555). Where indicated, tunicamycin (Sigma) was present at 10 μg/ml for 16 hours before and during pulse labelling. Cells were lysed with 100 μl of buffer [1% Nonidet® P-40, 1 mM CaCl2, 150 mM NaCl, 0.4 mM Pefabloc® (Boehringer Mann-heim), 10 μg/ml Leupeptin and E64 (Sigma), 10 mM Tris/HCl; pH 7.4; Nonidet P-40 is a detergent and Pefabloc is a protease inhibitor]. […]

CC(C)[C@@H]1NC(=O)[C@@H](Cc2ccccc2)NC(=O)[C@H](CC(=O)O)NC(=O)CNC(=O)[C@H](CCCNC(=N)N)NC1=O [cyc(RGDfV)]
IC50 [1]: 1 to 5 nM

cyc(RGEfV) (cyclo(RGE[dF]V); SMILES CC(C)[C@@H]1NC(=O)[C@@H](Cc2ccccc2)NC(=O)[C@H](CCC(=O)O)NC(=O)CNC(=O)[C@H](CCCNC(=N)N)NC1=O) [control peptide where glutamate was substituted for aspartate]
effect on cell shape change of αV and β3 virus infected Sf9 cells [2]: no effect

cyc(RβADfV) (cyclo(R[βAla]D[dF]V); SMILES CC(C)[C@@H]1NC(=O)[C@@H](Cc2ccccc2)NC(=O)[C@H](CC(=O)O)NC(=O)CCNC(=O)[C@H](CCCNC(=N)N)NC1=O) [control peptide where β-alanine was substituted for glycine]
effect on cell shape change of αV and β3 virus infected Sf9 cells [2]: no effect

fibrinogen
binding of biotinylated ligand to immobilized receptor [3]: bind both to the full length and soluble receptor preparations in a concentration dependent manner

fibronectin
binding of biotinylated ligand to immobilized receptor [3]: bind both to the full length and soluble receptor preparations in a concentration dependent manner

tunicamycin
production of the slower migrating (glycosylated) band [4]: inhibits the production of the slower migrating band

vitronectin: purified RGD-containing ligand from human plasma, biotinylated
binding of biotinylated ligand to immobilized receptor [3]: bind both to the full length and soluble receptor preparations in a concentration dependent manner
